± gives the expanded uncertainty stated by the source.
Assay: molar heat capacity at saturation pressure
Conditions: Small (less than 1 g) adiabatic calorimetry

C=CC(C)(C)O [2-methyl-3-buten-2-ol]
molar heat capacity [J/K/mol]
Conditions	Crystal 1	Crystal 2
5 K	–	0.3244 ± 0.021
5.363 K	–	0.4026 ± 0.021
5.571 K	–	0.4523 ± 0.022
5.832 K	–	0.524 ± 0.023
6.097 K	–	0.6053 ± 0.025
6.395 K	–	0.7063 ± 0.027
6.727 K	–	0.8287 ± 0.03
7.065 K	–	0.9656 ± 0.033
7.409 K	–	1.117 ± 0.036
7.759 K	–	1.284 ± 0.039
8.114 K	–	1.466 ± 0.043
8.474 K	–	1.662 ± 0.048
8.837 K	–	1.874 ± 0.052
9.202 K	–	2.099 ± 0.057
9.571 K	–	2.338 ± 0.062
9.942 K	–	2.587 ± 0.068
10 K	–	2.631 ± 0.051
10.42 K	–	2.931 ± 0.056
11.01 K	–	3.375 ± 0.062
11.6 K	–	3.843 ± 0.068
12.19 K	–	4.339 ± 0.075
12.79 K	–	4.858 ± 0.082
13.39 K	–	5.395 ± 0.089
14 K	–	5.954 ± 0.096
14.61 K	–	6.523 ± 0.1
15 K	–	6.921 ± 0.11
15.22 K	–	7.118 ± 0.11
15.95 K	–	7.872 ± 0.12
16.79 K	–	8.742 ± 0.13
17.63 K	–	9.598 ± 0.14
18.48 K	–	10.46 ± 0.15
19.32 K	–	11.32 ± 0.16
20 K	–	12.04 ± 0.13
20.18 K	–	12.2 ± 0.13
21.37 K	–	13.46 ± 0.14
22.9 K	–	15.06 ± 0.14
24.44 K	–	16.66 ± 0.15
25 K	–	17.22 ± 0.15
25.98 K	–	18.24 ± 0.16
27.53 K	–	19.75 ± 0.16
28.81 K	–	20.98 ± 0.16
30 K	–	22.12 ± 0.17
30.24 K	–	22.33 ± 0.17
31.96 K	–	23.92 ± 0.18
33.85 K	–	25.59 ± 0.19
35 K	–	26.55 ± 0.2
35.75 K	–	27.18 ± 0.2
37.65 K	–	28.7 ± 0.21
39.55 K	–	30.18 ± 0.21
40 K	–	30.53 ± 0.22
41.55 K	–	31.7 ± 0.22
43.65 K	–	33.27 ± 0.23
45 K	–	34.27 ± 0.24
45.75 K	–	34.79 ± 0.24
47.85 K	–	36.31 ± 0.25
49.95 K	–	37.78 ± 0.25
50 K	–	37.8 ± 0.25
52.05 K	–	39.21 ± 0.26
54.16 K	–	40.59 ± 0.27
56.27 K	–	41.96 ± 0.28
58.39 K	–	43.29 ± 0.28
60 K	–	44.33 ± 0.29
60.51 K	–	44.64 ± 0.29
62.64 K	–	45.97 ± 0.3
64.76 K	–	47.34 ± 0.3
66.88 K	–	48.71 ± 0.31
69.01 K	–	50.1 ± 0.32
70 K	–	50.7 ± 0.32
71.24 K	–	51.62 ± 0.33
73.58 K	–	53.27 ± 0.34
75.92 K	–	55.14 ± 0.35
77.87 K	–	57.21 ± 0.36
78.23 K	–	57.58 ± 0.36
78.27 K	–	57.34 ± 0.36
78.34 K	–	57.57 ± 0.36
79.01 K	–	58.22 ± 0.36
79.1 K	–	58.39 ± 0.36
79.23 K	–	58.44 ± 0.36
79.68 K	–	58.95 ± 0.37
79.83 K	–	59.11 ± 0.37
80 K	–	57.08 ± 0.36
80.23 K	–	59.74 ± 0.37
80.33 K	–	59.84 ± 0.37
80.34 K	–	59.8 ± 0.37
80.38 K	–	59.82 ± 0.37
80.93 K	–	60.61 ± 0.37
81.01 K	–	60.76 ± 0.38
81.36 K	–	61.46 ± 0.38
81.48 K	–	61.53 ± 0.38
81.67 K	–	61.8 ± 0.38
82.03 K	–	62.46 ± 0.38
82.27 K	–	62.81 ± 0.39
82.34 K	–	62.96 ± 0.39
82.49 K	–	63.36 ± 0.39
82.57 K	–	63.46 ± 0.39
83 K	–	64.02 ± 0.39
83.12 K	–	64.33 ± 0.39
83.61 K	–	65.12 ± 0.4
83.66 K	–	65.08 ± 0.4
84.19 K	–	66.18 ± 0.4
84.2 K	–	65.98 ± 0.4
84.31 K	–	66.19 ± 0.4
84.72 K	–	67.2 ± 0.41
84.74 K	–	67.26 ± 0.41
84.97 K	–	67.69 ± 0.41
85.28 K	–	68.9 ± 0.42
85.62 K	–	69.64 ± 0.42
85.81 K	–	71.17 ± 0.44
85.82 K	–	71.29 ± 0.44
86.07 K	–	73.72 ± 0.45
86.26 K	–	73.39 ± 0.44
86.33 K	–	74.69 ± 0.45
88.1 K	61.32 ± 0.32	62.25 ± 0.38
89.48 K	65.12 ± 0.4	–
89.49 K	64.37 ± 0.39	–
89.61 K	64.85 ± 0.4	–
90 K	62.35 ± 0.35	–
90.04 K	63.82 ± 0.41	–
90.18 K	63.5 ± 0.41	–
90.62 K	63.44 ± 0.41	–
90.78 K	63.53 ± 0.41	–
90.87 K	63.45 ± 0.41	–
91.19 K	63.49 ± 0.41	–
91.32 K	63.69 ± 0.41	–
91.57 K	63.46 ± 0.41	–
91.77 K	63.59 ± 0.41	–
91.97 K	63.75 ± 0.41	–
92.27 K	63.73 ± 0.41	–
92.34 K	63.78 ± 0.41	–
92.92 K	64.01 ± 0.41	–
92.97 K	64.05 ± 0.41	–
93.15 K	64.24 ± 0.41	–
93.36 K	64.34 ± 0.41	–
93.5 K	64.26 ± 0.41	–
93.67 K	64.43 ± 0.41	–
94.08 K	64.54 ± 0.41	–
94.35 K	64.76 ± 0.42	–
94.37 K	64.82 ± 0.42	–
94.67 K	64.85 ± 0.42	–
95.08 K	65.12 ± 0.42	–
95.25 K	65.18 ± 0.42	–
95.42 K	65.33 ± 0.42	–
95.55 K	65.34 ± 0.42	–
96.34 K	65.8 ± 0.42	–
96.44 K	65.84 ± 0.42	–
96.75 K	65.99 ± 0.42	–
97.48 K	66.4 ± 0.42	–
97.95 K	66.62 ± 0.42	–
98.15 K	66.74 ± 0.42	–
98.26 K	66.77 ± 0.42	–
99.15 K	67.27 ± 0.43	–
99.55 K	67.5 ± 0.43	–
99.97 K	67.73 ± 0.43	–
100 K	67.72 ± 0.43	–
101.8 K	68.7 ± 0.43	–
101.81 K	68.72 ± 0.43	–
103.63 K	69.68 ± 0.44	–
104.26 K	70.06 ± 0.44	–
105.46 K	70.68 ± 0.44	–
106.72 K	71.41 ± 0.45	–
107.3 K	71.7 ± 0.45	–
109.14 K	72.73 ± 0.45	–
109.18 K	72.79 ± 0.45	–
110 K	73.25 ± 0.45	–
110.98 K	73.78 ± 0.46	–
111.65 K	74.18 ± 0.46	–
112.82 K	74.82 ± 0.46	–
114.12 K	75.6 ± 0.47	–
114.67 K	75.87 ± 0.47	–
116.51 K	76.95 ± 0.47	–
116.6 K	77.03 ± 0.47	–
118.36 K	78.04 ± 0.48	–
119.07 K	78.49 ± 0.48	–
120 K	78.98 ± 0.49	–
120.2 K	79.15 ± 0.48	–
121.55 K	79.98 ± 0.49	–
122.05 K	80.25 ± 0.49	–
123.9 K	81.37 ± 0.49	–
124.02 K	81.49 ± 0.49	–
125.74 K	82.53 ± 0.5	–
126.49 K	83.07 ± 0.5	–
127.59 K	83.73 ± 0.51	–
128.96 K	84.71 ± 0.51	–
129.43 K	85.04 ± 0.51	–
130 K	85.52 ± 0.51	–
131.26 K	86.38 ± 0.52	–
131.43 K	86.54 ± 0.52	–
133.1 K	87.73 ± 0.52	–
133.88 K	88.39 ± 0.53	–
134.93 K	89.13 ± 0.53	–
136.33 K	90.2 ± 0.54	–
136.76 K	90.46 ± 0.54	–
138.58 K	91.75 ± 0.54	–
138.78 K	91.98 ± 0.54	–
140 K	92.84 ± 0.55	–
140.4 K	93.1 ± 0.55	–
141.22 K	93.76 ± 0.55	–
142.22 K	94.49 ± 0.56	–
143.66 K	95.62 ± 0.56	–
144.04 K	95.9 ± 0.56	–
145.85 K	97.31 ± 0.57	–
146.09 K	97.56 ± 0.57	–
147.65 K	98.82 ± 0.58	–
148.5 K	99.58 ± 0.58	–
149.45 K	100.3 ± 0.6	–
150 K	100.8 ± 0.6	–
150.92 K	101.6 ± 0.6	–
151.37 K	102 ± 0.6	–
153.32 K	103.8 ± 0.6	–
153.4 K	103.9 ± 0.6	–
155.42 K	105.7 ± 0.6	–
155.71 K	106 ± 0.6	–
157.44 K	107.7 ± 0.6	–
158.09 K	108.4 ± 0.6	–
159.45 K	109.7 ± 0.6	–
160 K	110.3 ± 0.6	–
160.45 K	110.8 ± 0.6	–
161.45 K	111.8 ± 0.6	–
162.8 K	113.2 ± 0.6	–
163.44 K	113.9 ± 0.7	–
165.14 K	115.7 ± 0.7	–
165.42 K	116 ± 0.7	–
167.39 K	118.2 ± 0.7	–
167.47 K	118.3 ± 0.7	–
